Common to all, as to type: functional
One test has as its system HT-29. In words: Growth inhibition of human HT-29 cells assessed as cell growth at 0.01 uM incubated for 48 hrs by sulforhodamine B assay relative to control. The settings on record: HT-29, 48 h, read-out: Activity.
A further test deals with UACC-257. In words: Growth inhibition of human UACC257 cells assessed as cell growth at 0.01 uM incubated for 48 hrs by sulforhodamine B assay relative to control. Conditions: UACC-257, 48 h, read-out: Activity.
The test system of a further test is OVCAR-5. In words: Growth inhibition of human OVCAR5 cells assessed as cell growth at 0.01 uM incubated for 48 hrs by sulforhodamine B assay relative to control. The settings on record: OVCAR-5, 48 h, read-out: Activity.
The subject of a further test is Hs-578T. The test is described as follows: Growth inhibition of human Hs 578T cells assessed as cell growth at 0.01 uM incubated for 48 hrs by sulforhodamine B assay relative to control. Conditions: read-out: Activity.
The test system of test [1] is OVCAR-8. In words: Growth inhibition of human OVCAR8 cells assessed as cell growth at 0.1 uM incubated for 48 hrs by sulforhodamine B assay relative to control. The settings on record: OVCAR-8, 48 h, read-out: Activity.
Test [2] relates to PC-3. In words: Growth inhibition of human PC3 cells assessed as cell growth at 0.1 uM incubated for 48 hrs by sulforhodamine B assay relative to control. The settings on record: PC-3, 48 h, read-out: Activity.
The next test deals with HL-60(TB). In words: Growth inhibition of human HL-60(TB) cells assessed as cell growth at 1 uM incubated for 48 hrs by sulforhodamine B assay relative to control. The settings on record: HL-60, 48 h, read-out: Activity.
In another test the test system is MOLT-4. The test is described as follows: Growth inhibition of human MOLT4 cells assessed as cell growth at 1 uM incubated for 48 hrs by sulforhodamine B assay relative to control. The settings on record: MOLT-4, 48 h, read-out: Activity.
Test [3] concerns OVCAR-8. In words: Growth inhibition of human OVCAR8 cells assessed as cell growth at 1 uM incubated for 48 hrs by sulforhodamine B assay relative to control. The settings on record: OVCAR-8, 48 h, read-out: Activity.
For the next test, the system named is RPMI-8226. In words: Growth inhibition of human RPMI8226 cells assessed as cell growth at 10 uM incubated for 48 hrs by sulforhodamine B assay relative to control. The settings on record: RPMI-8226, 48 h, read-out: Activity.
A further test relates to KM12. In words: Growth inhibition of human KM12 cells assessed as cell growth at 10 uM incubated for 48 hrs by sulforhodamine B assay relative to control. Conditions: KM12, 48 h, read-out: Activity.
The test system of a further test is SK-MEL-2. In words: Growth inhibition of human SK-MEL-2 cells assessed as cell growth at 10 uM incubated for 48 hrs by sulforhodamine B assay relative to control. Conditions: SK-MEL-2, 48 h, read-out: Activity.
Another test deals with DU-145. In words: Growth inhibition of human DU145 cells assessed as cell growth at 10 uM incubated for 48 hrs by sulforhodamine B assay relative to control. The settings on record: DU-145, 48 h, read-out: Activity.
The test system of test [4] is SNB-19. In words: Growth inhibition of human SNB19 cells assessed as cell growth at 100 uM incubated for 48 hrs by sulforhodamine B assay relative to control. Conditions: SNB-19, 48 h, read-out: Activity.
A further test concerns SF-268. In words: Growth inhibition of human SF268 cells assessed as cell growth at 0.003 uM incubated for 48 hrs by sulforhodamine B assay relative to control. Conditions: SF-268, 48 h, read-out: Activity.
In test [5] the test system is SNB-19. In words: Growth inhibition of human SNB19 cells assessed as cell growth at 0.003 uM incubated for 48 hrs by sulforhodamine B assay relative to control. Conditions: SNB-19, 48 h, read-out: Activity.
The subject of another test is MDA-MB-435. The test is described as follows: Growth inhibition of human MDA-MB-435 cells assessed as cell growth at 0.003 uM incubated for 48 hrs by sulforhodamine B assay relative to control. The settings on record: MDA-MB-435, 48 h, read-out: Activity.
In the next test the test system is NCI-H322M. The test is described as follows: Growth inhibition of human NCI-H322M cells assessed as cell growth at 0.03 uM incubated for 48 hrs by sulforhodamine B assay relative to control. The settings on record: read-out: Activity.
Another test concerns Malme-3M. The test is described as follows: Growth inhibition of human MALME-3M cells assessed as cell growth at 0.03 uM incubated for 48 hrs by sulforhodamine B assay relative to control. Conditions: read-out: Activity.
In the next test the test system is UACC-62. In words: Growth inhibition of human UACC62 cells assessed as cell growth at 0.03 uM incubated for 48 hrs by sulforhodamine B assay relative to control. Conditions: UACC-62, 48 h, read-out: Activity.
For another test, the system named is OVCAR-3. In words: Growth inhibition of human OVCAR3 cells assessed as cell growth at 0.03 uM incubated for 48 hrs by sulforhodamine B assay relative to control. The settings on record: OVCAR-3, 48 h, read-out: Activity.
The next test relates to 786-0. The test is described as follows: Growth inhibition of human 786-0 cells assessed as cell growth at 0.03 uM incubated for 48 hrs by sulforhodamine B assay relative to control. Conditions: 786-0, 48 h, read-out: Activity.
In test [6] the test system is MCF7. The test is described as follows: Growth inhibition of human MCF7 cells assessed as cell growth at 0.03 uM incubated for 48 hrs by sulforhodamine B assay relative to control. The settings on record: MCF7, 48 h, read-out: Activity.
A further test concerns A498. In words: Growth inhibition of human A498 cells assessed as cell growth at 0.3 uM incubated for 48 hrs by sulforhodamine B assay relative to control. The settings on record: A498, 48 h, read-out: Activity.
The subject of another test is RXF 393. In words: Growth inhibition of human RXF393 cells assessed as cell growth at 0.3 uM incubated for 48 hrs by sulforhodamine B assay relative to control. Conditions: RXF 393, 48 h, read-out: Activity.
Another test has as its system COLO 205. The test is described as follows: Growth inhibition of human COLO205 cells assessed as cell growth at 3 uM incubated for 48 hrs by sulforhodamine B assay relative to control. The settings on record: COLO 205, 48 h, read-out: Activity.
The test system of another test is SF-539. The test is described as follows: Growth inhibition of human SF539 cells assessed as cell growth at 3 uM incubated for 48 hrs by sulforhodamine B assay relative to control. Conditions: SF-539, 48 h, read-out: Activity.
In the next test the test system is A549. The test is described as follows: Growth inhibition of human A549/ATCC cells assessed as cell growth at 30 uM incubated for 48 hrs by sulforhodamine B assay relative to control. The settings on record: A549, 48 h, read-out: Activity.
A further test relates to SNB-75. In words: Growth inhibition of human SNB75 cells assessed as cell growth at 30 uM incubated for 48 hrs by sulforhodamine B assay relative to control. The settings on record: SNB-75, 48 h, read-out: Activity.
Another test relates to SK-MEL-28. In words: Growth inhibition of human SK-MEL-28 cells assessed as cell growth at 30 uM incubated for 48 hrs by sulforhodamine B assay relative to control. The settings on record: SK-MEL-28, 48 h, read-out: Activity.
Test [7] has as its system PC-3. The test is described as follows: Growth inhibition of human PC3 cells assessed as cell growth at 30 uM incubated for 48 hrs by sulforhodamine B assay relative to control. Conditions: PC-3, 48 h, read-out: Activity.
Test [8] relates to MCF7. In words: Growth inhibition of human MCF7 cells assessed as cell growth at 30 uM incubated for 48 hrs by sulforhodamine B assay relative to control. The settings on record: MCF7, 48 h, read-out: Activity.
In the next test the test system is MDA-MB-468. In words: Growth inhibition of human MDA-MB-468 cells incubated for 48 hrs by sulforhodamine B assay. Conditions: MDA-MB-468, 48 h.

As for `COc1cc2cc(Oc3ccc(NC(=O)Nc4ccc(Cl)c(Cl)c4)cc3)c(C)nc2cc1OC`, the growth at 0.01 µM worked out at 108% with HT-29, 97% with UACC-257, 103% with OVCAR-5 and 100% with Hs-578T. In addition, the values for the growth at 0.1 µM in the test with OVCAR-8 [1] and with PC-3 [2] were 100% and 95%, respectively. Besides, the figures for the growth at 1 µM in the test with HL-60(TB), in the test with MOLT-4 and in the test with OVCAR-8 [3] were 107%, 90% and 96%, respectively. The growth at 10 µM is -22% in the test with RPMI-8226, 8% in the test with KM12, -27% in the test with SK-MEL-2 and 19% in the test on DU-145. The growth at 100 µM in the test on SNB-19 [4] was -41%.
For `COc1cc2cc(Oc3ccc(NC(=O)Nc4ccc(Cl)c(C(F)(F)F)c4)cc3)c(C)nc2cc1OC`, the growth at 0.003 µM in the test with SF-268 was found to be 95%; in the test with SNB-19 [5], 94%; in the test with MDA-MB-435 it was 98%. Besides, the growth at 0.03 µM in the test with NCI-H322M was 90%; in the test on Malme-3M it was 100%; with UACC-62, 92%; in the test with OVCAR-3 it was 91%; with 786-0, 83%; in the test on MCF7 [6] it was 97%. In addition, the growth at 0.3 µM in the test on A498 worked out at 78%; in the test on RXF 393, 113%. Besides, the values for the growth at 3 µM in the test with COLO 205 and in the test on SF-539 were -67% and 34%, respectively. Besides, the growth at 30 µM in the test with A549 was -80%; in the test with SNB-75, -44%; with SK-MEL-28, -92%; in the test with PC-3 [7], -50%; in the test with MCF7 [8], -79%.
For `COc1cc2cc(Oc3ccc(NC(=O)Nc4cc(C(F)(F)F)cc(C(F)(F)F)c4)cc3)c(C)nc2cc1OC`, the GI50 in the test on MDA-MB-468 amounted to 1.08 µM. In the test on MDA-MB-468, the TGI amounted to 3.96 µM. Further, the growth at 0.01 µM in the test on HT-29 was 97%; in the test with UACC-257 it was 104%; with OVCAR-5, 87%; in the test on Hs-578T it was 98%. In addition, the growth at 0.1 µM in the test with OVCAR-8 [1] amounted to 110%; with PC-3 [2], 89%. Also, the results for the growth at 1 µM in the test with HL-60(TB), with MOLT-4 and in the test on OVCAR-8 [3] were 72%, 55% and 76%, respectively. Moreover, the growth at 10 µM in the test on RPMI-8226 is -8%; in the test on KM12 it was -75%; in the test on SK-MEL-2 it was -51%; with DU-145, -2%. For the same molecule, in the test with SNB-19 [4], the growth at 100 µM is -79%.
In the test on MDA-MB-468, `Cc1nc2cc(O)c(O)cc2cc1Oc1ccc(NC(=O)Nc2ccc(Cl)c(Cl)c2)cc1` returned a GI50 of 6.99 µM. Moreover, the TGI in the test with MDA-MB-468 worked out at 17.4 µM. Also, the CC50 with MDA-MB-468 (read-out: LC50 (the source's name)) is greater than 32.5 µM. Moreover, the growth at 0.003 µM was 100% in the test on SF-268, 94% in the test on SNB-19 [5] and 94% in the test with MDA-MB-435. The growth at 0.03 µM in the test on NCI-H322M came to 108%; with Malme-3M it was 101%; in the test on UACC-62, 97%; in the test with OVCAR-3 it was 107%; in the test on 786-0 it was 95%; with MCF7 [6], 89%. The growth at 0.3 µM in the test on A498 worked out at 80%; in the test with RXF 393, 103%. For the same molecule, the growth at 3 µM in the test on COLO 205 came to 85%; with SF-539, 103%. Moreover, the growth at 30 µM in the test with A549 is -10%; in the test on SNB-75 it was -4%; with SK-MEL-28, -3%; with PC-3 [7] it was 6%; in the test on MCF7 [8], 1%.

The values above are taken from ChEMBL document CHEMBL3994622, “Design and synthesis of new RAF kinase-inhibiting antiproliferative quinoline derivatives. Part 2: Diarylurea derivatives” (Eur J Med Chem, 2017).
